Test results taken from ChEMBL document CHEMBL3112567, “Novel GlyT1 inhibitor chemotypes by scaffold hopping. Part 1: development of a potent and CNS penetrant [3.1.0]-based lead” (Bioorg Med Chem Lett, 2014).
Calls of active or inactive are those of the source. The calls are words filed in the database; no cut-off is given here.

Legend:
[1] = target: T1, Sodium- and chloride-dependent glycine transporter 2 (Homo sapiens, UniProt Q9Y345); experiment: Inhibition of GlyT2 (unknown origin)
T1 sequence (Q9Y345 whole entry): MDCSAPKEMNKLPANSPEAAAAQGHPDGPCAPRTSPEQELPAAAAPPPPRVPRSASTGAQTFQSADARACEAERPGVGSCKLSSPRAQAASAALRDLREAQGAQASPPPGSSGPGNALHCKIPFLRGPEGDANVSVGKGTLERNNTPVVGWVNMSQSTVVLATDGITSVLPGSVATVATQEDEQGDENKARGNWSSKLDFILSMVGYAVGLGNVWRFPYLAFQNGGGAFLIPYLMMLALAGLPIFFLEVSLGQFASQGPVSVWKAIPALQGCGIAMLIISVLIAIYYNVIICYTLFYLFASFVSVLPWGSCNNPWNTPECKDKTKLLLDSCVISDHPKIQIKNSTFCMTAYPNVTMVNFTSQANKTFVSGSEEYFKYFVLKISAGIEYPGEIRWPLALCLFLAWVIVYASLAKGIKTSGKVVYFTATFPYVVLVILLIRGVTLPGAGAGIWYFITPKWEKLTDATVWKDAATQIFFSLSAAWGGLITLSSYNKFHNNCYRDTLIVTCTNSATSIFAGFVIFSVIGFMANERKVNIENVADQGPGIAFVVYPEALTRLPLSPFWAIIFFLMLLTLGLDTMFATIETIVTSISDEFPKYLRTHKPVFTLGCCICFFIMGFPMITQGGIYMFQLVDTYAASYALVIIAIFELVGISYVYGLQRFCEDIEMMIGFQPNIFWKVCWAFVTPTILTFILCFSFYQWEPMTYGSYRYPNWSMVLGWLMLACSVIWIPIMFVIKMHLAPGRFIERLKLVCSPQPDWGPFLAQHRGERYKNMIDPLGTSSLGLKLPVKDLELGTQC

[2] = target: T2, Sodium- and chloride-dependent glycine transporter 1 (Homo sapiens, UniProt P48067); experiment: Inhibition of GlyT1 (unknown origin) assessed as inhibition of [14C]glycine uptake
T2 sequence (P48067 whole entry): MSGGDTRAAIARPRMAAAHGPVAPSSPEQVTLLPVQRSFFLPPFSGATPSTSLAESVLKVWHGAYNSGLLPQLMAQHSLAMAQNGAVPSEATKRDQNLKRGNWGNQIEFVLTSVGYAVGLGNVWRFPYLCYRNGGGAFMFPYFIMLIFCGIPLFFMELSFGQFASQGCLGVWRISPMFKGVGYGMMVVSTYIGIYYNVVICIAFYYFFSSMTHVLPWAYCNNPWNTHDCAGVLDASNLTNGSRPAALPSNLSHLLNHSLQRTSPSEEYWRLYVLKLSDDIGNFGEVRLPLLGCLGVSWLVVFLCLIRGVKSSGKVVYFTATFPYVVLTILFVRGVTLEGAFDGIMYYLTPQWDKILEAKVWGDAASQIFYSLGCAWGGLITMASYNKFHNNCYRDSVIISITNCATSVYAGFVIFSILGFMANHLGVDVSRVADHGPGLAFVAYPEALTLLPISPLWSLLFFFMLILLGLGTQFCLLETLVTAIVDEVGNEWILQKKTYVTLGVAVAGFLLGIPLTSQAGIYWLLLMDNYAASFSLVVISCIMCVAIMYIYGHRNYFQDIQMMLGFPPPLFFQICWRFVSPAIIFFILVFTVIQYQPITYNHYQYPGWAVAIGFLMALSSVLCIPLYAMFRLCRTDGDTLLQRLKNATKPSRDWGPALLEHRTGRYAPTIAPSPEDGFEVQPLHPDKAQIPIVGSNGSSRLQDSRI

[3] = test system: Plasma; experiment: (§1) Fraction unbound in human plasma; assay type: ADME, cell-free
[4] = Partitioning coefficient, ratio of drug uptake from rat brain to plasma at 10 mg/kg, po; assay type: ADME, organism-based; parameters: dose 10 mg/kg, route oral
[5] = target: Cytochrome P450 3A4 (Homo sapiens, UniProt P08684); experiment: Inhibition of CYP3A4 (unknown origin); assay type: ADME
Chain of Cytochrome P450 3A4 (P08684 whole entry): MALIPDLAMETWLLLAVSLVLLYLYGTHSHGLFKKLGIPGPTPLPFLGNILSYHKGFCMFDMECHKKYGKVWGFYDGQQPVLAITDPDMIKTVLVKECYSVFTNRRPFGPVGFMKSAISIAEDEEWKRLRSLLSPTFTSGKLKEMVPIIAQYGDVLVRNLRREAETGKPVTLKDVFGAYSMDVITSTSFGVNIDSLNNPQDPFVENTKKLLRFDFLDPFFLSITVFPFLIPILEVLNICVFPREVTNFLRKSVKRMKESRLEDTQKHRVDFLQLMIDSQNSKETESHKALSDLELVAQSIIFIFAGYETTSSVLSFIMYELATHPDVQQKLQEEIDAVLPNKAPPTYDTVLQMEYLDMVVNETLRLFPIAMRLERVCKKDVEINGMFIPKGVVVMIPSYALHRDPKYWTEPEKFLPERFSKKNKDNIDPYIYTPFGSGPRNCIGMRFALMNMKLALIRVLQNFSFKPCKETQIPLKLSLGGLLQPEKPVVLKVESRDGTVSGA

[6] = as §1; assay type: ADME, cell-free
[7] = target: Cytochrome P450 2C9 (Homo sapiens, UniProt P11712); experiment: Inhibition of CYP2C9 (unknown origin); assay type: ADME
Chain of Cytochrome P450 2C9 (P11712 whole entry): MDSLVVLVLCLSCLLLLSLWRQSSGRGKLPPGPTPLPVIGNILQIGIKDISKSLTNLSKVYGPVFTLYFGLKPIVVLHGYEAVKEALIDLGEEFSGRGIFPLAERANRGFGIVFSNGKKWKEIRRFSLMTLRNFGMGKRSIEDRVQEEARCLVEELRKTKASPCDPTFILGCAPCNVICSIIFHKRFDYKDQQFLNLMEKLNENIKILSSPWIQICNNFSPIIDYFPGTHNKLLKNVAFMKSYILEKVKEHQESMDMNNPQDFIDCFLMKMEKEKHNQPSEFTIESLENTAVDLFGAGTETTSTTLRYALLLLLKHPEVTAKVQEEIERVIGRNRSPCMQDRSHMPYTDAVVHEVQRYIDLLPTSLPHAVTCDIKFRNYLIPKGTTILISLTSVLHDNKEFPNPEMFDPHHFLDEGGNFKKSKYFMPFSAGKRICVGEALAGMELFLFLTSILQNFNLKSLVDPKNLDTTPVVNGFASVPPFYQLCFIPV

[8] = target: T3, Cytochrome P450 1A2 (Homo sapiens, UniProt P05177); experiment: Inhibition of CYP1A2 (unknown origin); assay type: ADME
T3 sequence (P05177 whole entry): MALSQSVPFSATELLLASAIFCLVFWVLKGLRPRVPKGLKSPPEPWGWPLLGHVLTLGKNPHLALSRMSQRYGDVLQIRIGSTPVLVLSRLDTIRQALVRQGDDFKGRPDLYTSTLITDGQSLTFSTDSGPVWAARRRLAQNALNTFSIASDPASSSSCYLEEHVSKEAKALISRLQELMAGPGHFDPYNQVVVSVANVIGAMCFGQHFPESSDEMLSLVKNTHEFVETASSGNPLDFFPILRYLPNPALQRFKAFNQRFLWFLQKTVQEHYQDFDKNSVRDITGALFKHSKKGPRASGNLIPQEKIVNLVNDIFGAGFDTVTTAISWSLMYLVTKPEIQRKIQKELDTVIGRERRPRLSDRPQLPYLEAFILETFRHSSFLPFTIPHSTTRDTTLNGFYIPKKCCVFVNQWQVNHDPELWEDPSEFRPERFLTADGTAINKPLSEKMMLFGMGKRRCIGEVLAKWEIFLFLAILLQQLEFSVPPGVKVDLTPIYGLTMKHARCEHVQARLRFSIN

[9] = target: Cytochrome P450 2D6 (Homo sapiens, UniProt P10635); experiment: Inhibition of CYP2D6 (unknown origin); assay type: ADME
Chain of Cytochrome P450 2D6 (P10635 whole entry): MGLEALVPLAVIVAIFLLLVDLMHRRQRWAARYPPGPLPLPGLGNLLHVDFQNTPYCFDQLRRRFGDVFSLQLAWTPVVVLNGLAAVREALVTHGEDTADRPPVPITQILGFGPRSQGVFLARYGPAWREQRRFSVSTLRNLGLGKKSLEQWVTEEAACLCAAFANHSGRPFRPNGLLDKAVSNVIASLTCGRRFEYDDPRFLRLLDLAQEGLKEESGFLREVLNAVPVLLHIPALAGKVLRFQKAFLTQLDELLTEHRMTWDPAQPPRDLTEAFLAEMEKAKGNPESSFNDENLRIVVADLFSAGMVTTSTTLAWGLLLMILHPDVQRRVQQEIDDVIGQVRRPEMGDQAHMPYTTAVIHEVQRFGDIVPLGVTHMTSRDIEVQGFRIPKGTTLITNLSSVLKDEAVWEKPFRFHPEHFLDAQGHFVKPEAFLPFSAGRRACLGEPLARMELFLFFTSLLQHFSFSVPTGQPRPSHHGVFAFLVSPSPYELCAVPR

[10] = target: T4, Sodium- and chloride-dependent glycine transporter 1 (Homo sapiens) (UniProt P48067); experiment: Competitive inhibition of GlyT1 (unknown origin) at 40 nM by Eadie-Hofstee plot analysis in presence of [14C]-glycine
T4 sequence (whole entry): T2 sequence (P48067 whole entry)

[11] = test system: Rattus norvegicus; experiment: Toxicity in rat schizophrenia model assessed as effect on basal startle amplitude at 30 mg/kg, po; assay type: organism-based; parameters: dose 30 mg/kg, route oral; details: in vivo
[12] = test system: Rattus norvegicus; experiment: Antischizophrenic activity in rat schizophrenia model assessed as inhibition of […] to […] dB intensity-induced prepulse at 30 mg/kg, po; assay type: functional, organism-based; parameters: dose 30 mg/kg
[13] = AUC (0 to 6 hrs) in rat brain at 10 mg/kg, sc; assay type: ADME, organism-based; parameters: time < 6 hr, dose 10 mg/kg, route subcutaneous
[14] = test system: Plasma; experiment: Metabolic stability in rat plasma after 4 hrs; assay type: ADME, cell-free
[15] = test system: Plasma; experiment: Fraction unbound in rat plasma; assay type: ADME, cell-free
[16] = test system: Plasma; experiment: AUC (0 to 6 hrs) in rat plasma at 10 mg/kg, po; assay type: ADME, organism-based; parameters: time < 6 hr, dose 10 mg/kg, route oral; details: in vivo
[17] = AUC (0 to 6 hrs) in rat brain at 10 mg/kg, po; assay type: ADME, organism-based; parameters: time < 6 hr, dose 10 mg/kg, route oral
[18] = test system: Plasma; experiment: AUC (0 to 6 hrs) in rat plasma at 10 mg/kg, sc; assay type: ADME, organism-based; parameters: time < 6 hr, dose 10 mg/kg, route subcutaneous; details: in vivo
[19] = Half life in rat at 0.5 mg/kg, iv; assay type: ADME, organism-based; parameters: dose 0.5 mg/kg, route intravenous; details: in vivo
[20] = Partitioning coefficient, ratio of drug uptake from rat brain to plasma at 10 mg/kg, sc; assay type: ADME, organism-based; parameters: dose 10 mg/kg, route subcutaneous
[21] = Clearance in rat at 0.5 mg/kg, iv; assay type: ADME, organism-based; parameters: dose 0.5 mg/kg, route intravenous; details: in vivo

O=C(NC[C@]1(CC2CC2)[C@@H]2CN(S(=O)(=O)CC3CC3)C[C@@H]21)c1ccc(Cl)cc1Cl
IC50 [1]: > 30 µM | IC50 [2]: 0.23 µM

Cn1cnc(S(=O)(=O)N2C[C@@H]3[C@H](C2)[C@@]3(CNC(=O)c2cccc(C(F)(F)F)c2)CC2CC2)c1
Fu [3]: 4% | Kp ([4]; brain and plasma, read-out: Kp): 0.7 | IC50 [2]: 0.064 µM

O=C(NC[C@]1(CC2CC2)[C@@H]2CN(S(=O)(=O)c3ccccc3)C[C@@H]21)c1ccc(Cl)cc1Cl
IC50 [1]: > 30 µM | IC50 [2]: > 10 µM

NCC(=O)O [GLYCINE]
IC50 [2]: 31.6 µM

Cn1cnc(S(=O)(=O)N2C[C@@H]3[C@H](C2)[C@@]3(CNC(=O)c2ccc(Cl)cc2Cl)c2ccccn2)c1
IC50 [5]: > 30 µM | fraction unbound [6]: 0.14 | IC50 [7]: > 30 µM | IC50 [8]: > 30 µM | Kp ([4]; brain): 1.1 | IC50 [2]: 0.247 µM | IC50 [9]: > 30 µM

CCS(=O)(=O)N1C[C@@H]2[C@H](C1)[C@@]2(CNC(=O)c1ccc(Cl)cc1Cl)CC1CC1
IC50 [1]: > 30 µM | IC50 [2]: 1.3 µM

O=C(NC[C@]1(CC2CC2)[C@@H]2CN(S(=O)(=O)c3ccccn3)C[C@@H]21)c1ccc(Cl)cc1Cl
IC50 [1]: > 30 µM | IC50 [2]: 1 µM

Cn1cnc(S(=O)(=O)N2C[C@@H]3[C@H](C2)[C@@]3(CNC(=O)c2ccc(Cl)cc2)CC2CC2)c1
Fu [3]: 3% | Kp ([4]; brain): 0.3 | IC50 [2]: 0.032 µM

CC(C)CS(=O)(=O)N1C[C@@H]2[C@H](C1)[C@@]2(CNC(=O)c1ccc(Cl)cc1Cl)CC1CC1
IC50 [1]: > 30 µM | IC50 [2]: 2.9 µM

Cn1cnc(S(=O)(=O)N2C[C@@H]3[C@H](C2)[C@@]3(CNC(=O)c2ccc(Cl)cc2Cl)CC2CC2)c1
fraction unbound [6]: 0.05 | Kp ([4]; brain and plasma, read-out: Kp): 0.3

Cn1cnc(S(=O)(=O)N2C[C@@H]3[C@H](C2)[C@@]3(CNC(=O)c2ccccc2Cl)CC2CC2)c1
fraction unbound [6]: 0.03 | Kp ([4]; brain and plasma, read-out: Kp): 0.4

O=C(NC[C@]1(CC2CC2)[C@@H]2CN(S(=O)(=O)c3ccccc3F)C[C@@H]21)c1ccc(Cl)cc1Cl
IC50 [1]: > 30 µM | IC50 [2]: > 10 µM

Cn1cnc(S(=O)(=O)N2C[C@@H]3[C@H](C2)[C@@]3(CNC(=O)c2ccccc2C(F)(F)F)c2ccccn2)c1
IC50 [5]: > 30 µM | fraction unbound [6]: 0.076 | IC50 [7]: > 30 µM | IC50 [8]: > 30 µM | IC50 [2]: 0.185 µM | IC50 [9]: > 30 µM

CCCS(=O)(=O)N1C[C@@H]2[C@H](C1)[C@@]2(CNC(=O)c1ccc(Cl)cc1Cl)CC1CC1
IC50 [1]: > 30 µM | IC50 [2]: 0.36 µM

Cn1cnc(S(=O)(=O)N2C[C@@H]3[C@H](C2)[C@@]3(CNC(=O)c2ccc(Cl)c(Cl)c2)CC2CC2)c1
Fu [3]: 2% | Kp ([4]; brain): 0.3 | IC50 [2]: 0.082 µM

Cn1cnc(S(=O)(=O)N2C[C@@H]3[C@H](C2)[C@@]3(CNC(=O)c2c(Cl)cccc2Cl)CC2CC2)c1
inhibition [10]: Active | Fu [3]: 8% | Kp ([4]; brain): 0.5 | IC50 [2]: 0.028 µM

CC(C)S(=O)(=O)N1C[C@@H]2[C@H](C1)[C@@]2(CNC(=O)c1ccc(Cl)cc1Cl)CC1CC1
IC50 [1]: > 30 µM | IC50 [2]: 3.4 µM

Cn1cnc(S(=O)(=O)N2C[C@@H]3[C@H](C2)[C@@]3(CNC(=O)c2cc(Cl)cc(Cl)c2)CC2CC2)c1
Fu [3]: 2% | Kp ([4]; brain): 0.3 | IC50 [2]: 0.1 µM

CCCS(=O)(=O)N1CCC(c2ccccc2)([C@H](C)NC(=O)c2ccc(Cl)cc2Cl)CC1
IC50 [5]: > 10 µM | IC50 [7]: > 10 µM | IC50 [2]: 0.0024 µM

O=C(NC[C@]1(CC2CC2)[C@@H]2CN(S(=O)(=O)c3cccnc3)C[C@@H]21)c1ccc(Cl)cc1Cl
IC50 [1]: > 30 µM | IC50 [2]: 0.89 µM

CCS(=O)(=O)N1CCC(CNC(=O)c2ccc(Cl)cc2Cl)(CC2CC2)CC1
IC50 [5]: > 10 µM | Activity [11]: Non-toxic | IC50 [7]: > 10 µM | inhibition [12]: Active

Cn1cnc(S(=O)(=O)N2C[C@@H]3[C@H](C2)[C@@]3(CNC(=O)c2ccccc2C(F)(F)F)CC2CC2)c1
Activity [11]: Non-toxic | AUC(0-t) at 6 h [13]: 0.431 µM·h | Fu [3]: 7% | Stability [14]: Stable | Fu [15]: 44.8% | IC50 [7]: > 30 µM | AUC [16]: 1.156 µM·h | AUC(0-t) at 6 h [17]: 0.956 µM·h | AUC [18]: 0.976 µM·h | IC50 [8]: > 30 µM | half-life [19]: 14.5 min | Kp ([4]; brain): 0.83 | inhibition [12]: Active | IC50 [2]: 0.005 µM | Kp [20]: 0.44 | IC50 [9]: > 30 µM | clearance [21]: 31 mL/min/kg

CN1C[C@@H]2[C@H](C1)[C@H]2CN(Cc1ccc(Cl)c(F)c1)C(=O)c1cn(C)cn1
IC50 [5]: > 10 µM | IC50 [7]: > 10 µM

CCCCS(=O)(=O)N1C[C@@H]2[C@H](C1)[C@@]2(CNC(=O)c1ccc(Cl)cc1Cl)CC1CC1
IC50 [1]: > 30 µM | IC50 [2]: 5.5 µM
